As a reminder, the IC50 is the midpoint of a concentration-inhibition curve. A lower IC50 goes with inhibition by little substance.

Consider seven molecules from ChEMBL document CHEMBL1152934, “Quinazolindione derivatives as potent 5-HT3A receptor antagonists” (Bioorg Med Chem, 2009).

This assay has as its target 5-hydroxytryptamine receptor 3A (Mus musculus) (UniProt P23979). Kind of assay: Antagonist activity at 5HT3A receptor expressed in Xenopus oocyte.

Chain of 5-hydroxytryptamine receptor 3A (Mus musculus) (P23979 whole entry, looked up): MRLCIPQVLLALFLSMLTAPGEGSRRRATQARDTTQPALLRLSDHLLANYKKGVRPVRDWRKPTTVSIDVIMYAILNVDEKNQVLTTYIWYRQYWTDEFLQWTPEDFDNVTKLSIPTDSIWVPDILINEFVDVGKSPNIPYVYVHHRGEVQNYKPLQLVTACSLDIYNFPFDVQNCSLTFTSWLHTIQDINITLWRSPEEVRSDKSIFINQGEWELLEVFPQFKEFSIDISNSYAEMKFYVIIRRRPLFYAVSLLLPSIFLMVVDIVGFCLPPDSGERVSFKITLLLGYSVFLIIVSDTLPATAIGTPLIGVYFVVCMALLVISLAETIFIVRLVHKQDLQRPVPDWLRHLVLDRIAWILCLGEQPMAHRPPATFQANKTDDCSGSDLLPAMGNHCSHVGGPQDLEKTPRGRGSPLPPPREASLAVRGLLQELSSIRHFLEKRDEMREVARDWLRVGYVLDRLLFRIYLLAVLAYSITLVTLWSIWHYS

Consider `O=C(NCCN1CCOCC1)c1ccc2c(=O)n(Cc3ccc(Cl)cc3)c(=O)[nH]c2c1`, for which half-maximal inhibition (IC50) was put at 15.8 µM.

As to `O=C(NCCN1CCOCC1)c1ccc2c(=O)n(Cc3ccc(F)cc3)c(=O)[nH]c2c1`, the IC50 was found to be 19.8 µM. In the case of `CCC1CCCCN1CCNC(=O)c1ccc2c(=O)n(Cc3ccc(Cl)cc3)c(=O)[nH]c2c1` (configuration not stated) it was 13.6 µM. For `O=C(NCCN1CCOCC1)c1ccc2c(=O)n(-c3ccc(F)cc3)c(=O)[nH]c2c1`, half-maximal inhibition (IC50) was put at 57 µM. In the case of `O=C(NCCN1CCCCC1)c1ccc2c(=O)n(Cc3ccccc3Cl)c(=O)[nH]c2c1` it was 2.1 µM; in that of `CC1CCCCN1CCCNC(=O)c1ccc2c(=O)n(C3CCCCC3)c(=O)[nH]c2c1` (configuration not stated), 5.9 µM.

Turning to `CC1CCCCN1CCCNC(=O)c1ccc2c(=O)n(Cc3ccc(Cl)cc3)c(=O)[nH]c2c1` (configuration not stated), the IC50 stood at 11.6 µM.
